{"source": "paper PMC3792051", "about": "“Polyenylpyrrole Derivatives Inhibit NLRP3 Inflammasome Activation and Inflammatory Mediator Expression by Reducing Reactive Oxygen Species Production and Mitogen-Activated Protein Kinase Activation” (PLoS ONE, 2013)", "key": {"[1]": {"tested_on": "NLRP3 inflammasome in LPS+ATP-activated peritoneal macrophages", "test": "NLRP3 inflammasome-mediated IL-1β secretion (ELISA)", "type": "cell-based, mouse", "settings": "compound 10-40 µM 30 min before LPS 5.5 h, then ATP 5 mM 30 min", "protocol": "The effects of the test samples on IL-1β, TNF-α, and IL-6 production were measured by ELISA according to the manufacturer’s instructions. In brief, 50 µl of biotinylated antibody reagent and 50 µl of supernatant were added to a stripwell plate precoated with anti-mouse IL-1β, TNF-α, or IL-6 antibodies, which was then incubated at room temperature for 2 h. After washing the plate three times with washing buffer, 100 µl of diluted streptavidin-HRP concentrate was added to each well and the plate incubated at room temperature for 30 min. […] After addition of 100 µl of stop solution to each well, the absorbance at 450 nm of each well was measured on a microplate reader. […]\nFigure 4 Effect of compound 1h on NLRP3 inflammasome activation in LPS+ATP-activated J774A.1 macrophages. (A) J774A.1 macrophages (1 × 10^6/ml; 1 ml) or (B) peritoneal macrophages (1 × 10^5/ml; 1 ml) were incubated with 10-40 µM compound 1h or DMSO for 30 min, then LPS (1 µg/ml) was added and incubation continued for 5.5 h, then the cells were stimulated with ATP (5 mM) for an additional 30 min, then IL-1β in the culture medium was measured by ELISA (A, upper panel; B) and levels of active caspase-1 (p10) (A, lower panel) measured by Western blotting. […]"}, "[2]": {"tested_on": "LPS-activated J774A.1 macrophages", "test": "NF-κB signaling (IKK-α/IκB-α Western blot, p65 nuclear translocation ELISA)", "type": "cell-based, murine", "settings": "J774A.1, 10-40 µM 30 min, LPS 20 min", "protocol": "(§1) Cells were washed twice with ice-cold phosphate-buffered saline (PBS) and lysed on ice for 5 min with lysis buffer (20 mM Tris-HCl, pH 7.5, 150 mM NaCl, 1 mM Na 2EDTA, 1 mM EGTA, 1% Triton X-100, 2.5 mM sodium pyrophosphate, 1 mM beta-glycerophosphate, 1 mM Na 3VO4, 1 µg/ml of leupeptin, 1 mM PMSF, protease inhibitor cocktail). The lysate was then centrifuged at 12,000 x g at 4 °C for 10 min and the pellet discarded. Proteins in the supernatant were separated by SDS-PAGE and electrotransferred to a PVDF membrane (EMD Millipore Corporation), which was then blocked by incubation for 1 h at room temperature in blocking buffer [(5% nonfat milk in PBS containing 0.1% Tween 20 (PBST)], then incubated for 2 h at room temperature with the primary antibody diluted in blocking buffer. After three washes in PBST, the membrane was incubated for 1 h at room temperature with an appropriate HRP-conjugated secondary antibody diluted in blocking buffer and developed using an enhanced chemiluminescence Western blot detection system (EMD Millipore Corporation).\n(§2) Nuclear proteins were extracted from RAW 264.7 and J774A.1 cells using a Nuclear Extract Kit (Active Motif) according to the manufacturer’s instructions and nuclear NF-κB p65 activation quantified using an ELISA-based TransAM NF-κB kit (Active Motif, Tokyo, Japan) according to the manufacturer’s protocol by reading the absorbance at 450 nm with a microplate absorbance reader (Bio-Rad Laboratories, Inc) and a reference wavelength of 655 nm.\n(§3) Following LPS stimulation, IκB in the complex is phosphorylated by IκB kinase (IKK), ubiquitinated, and rapidly degraded in proteasomes, thus releasing NF-κB [30].\n(§4) Figure 6 Effect of compound 1h on NF-κB activation in LPS-activated macrophages. (A) RAW 264.7 macrophages or (B) J774A.1 macrophages (both 5 × 10^5/ml; 1 ml) were incubated for 30 min with 10-40 µM compound 1h or DMSO, then LPS (1 µg/ml) was added and incubation continued for 20 min, then levels of phosphorylated and total IKK-α and IκB-α were measured by Western blotting. (C) RAW 264.7 macrophages or (D) J774A.1 macrophages (both 5 × 10^5/ml; 1 ml) were treated as in A and B, then nuclear translocation of NF-κB was analyzed by ELISA. (E) RAW-Blue^TM cells (5 × 10^5/ml; 1 ml) were incubated for 30 min with 2.5-40 µM compound 1h or DMSO, then LPS (1 µg/ml) was added and incubation continued for 24 h, then SEAP activity was measured by the QUANTI-Blue^TM assay and expressed as a percentage of that in the absence of compound 1h. In (A) and (B), the results are representative of those obtained in three different experiments. In (C-E), the data are expressed as the mean ± SD for three separate experiments. *, **, and *** indicate a significant difference at the level of p < 0.05, p < 0.01, and p < 0.001, respectively, compared to the DMSO/LPS group."}, "[3]": {"tested_on": "LPS-activated RAW 264.7 macrophages", "test": "NF-κB signaling (IKK-α/IκB-α Western blot, p65 nuclear translocation ELISA)", "type": "cell-based, murine", "settings": "RAW 264.7, 10-40 µM 30 min, LPS 20 min", "protocol": "as §1, §2, §3, §4"}, "[4]": {"tested_on": "ATP-activated LPS-primed J774A.1 macrophages", "test": "Intracellular ROS production (DCF fluorescence), ATP-induced", "type": "cell-based, murine", "description": "Intracellular ROS production was measured by detecting the fluorescence intensity of the 2’, 7’-dichlorofluorescein, the oxidation product of 2’, 7’-dichlorofluorescein diacetate (Molecular Probes, Eugene, OR). […] In another, J774A.1 macrophages (5 × 10^5/ml; 0.1 ml) were incubated with LPS (1 µg/ml) for 6 h, then vehicle, compound 1h (20 µM), or DPI (25 µM) was added for 30 min. 2’, 7’-dichlorofluorescein diacetate (2 µM) was then added for 30 min before incubation with ATP (5 mM) for the indicated time; while, in another, the order of addition of compound1h/DPI and LPS was reversed. The fluorescence intensity of 2’, 7’-dichlorofluorescein was detected at an excitation wavelength of 485 nm and an emission wavelength of 530 nm on a microplate absorbance reader (Bio-Rad Laboratories, Inc).\nIn (A), J774A.1 macrophages (1 × 10^6/ml; 1 ml) were incubated with LPS (1 µg/ml) for 6 h, then with compound 1h (20 µM), the NADPH oxidase inhibitor DPI (25 µM), or DMSO (vehicle) for 30 min in the continued presence of LPS, then 2’,7’-dichlorofluorescein diacetate (2 µM) was added for 30 min, followed by ATP (5 mM) for the indicated time, then ROS levels were determined by measuring the mean fluorescence intensity (MFI) of the fluorophore carboxyl-DCF and expressing this value relative to that at time zero. In (B), J774A.1 macrophages (1 × 10^6/ml; 1 ml) were incubated with compound 1h (20 µM), DPI (25 µM), or DMSO (vehicle) for 30 min, then LPS (1 µg/ml) was added for 6 h; the cells were then incubated with 2’,7’-dichlorofluorescein diacetate (2 µM) for 30 min, then with ATP (5 mM) for the indicated time and ROS levels were measured by detection of the fluorescence intensity of the fluorophore carboxyl-DCF and expressed relative to that at time zero."}}}
{"smiles": "O=c1cc(O)cc(/C=C/C=C/C=C/C=C/c2[nH]ccc2Cl)o1", "note": "[compound 1h]", "values": [{"measurement": "IL-1β secretion", "setting": "[1]", "result": "inhibited IL-1β secretion by primary peritoneal macrophages"}, {"measurement": "IκB-α degradation", "setting": "[2]", "result": "had a inhibitory effect on IκB-α degradation"}, {"measurement": "NF-κB nuclear translocation", "setting": "[2]", "result": "inhibited NF-κB nuclear translocation"}, {"measurement": "Phosphorylation of IKK-α and IκB-α", "setting": "[2]", "result": "inhibited phosphorylation of IKK-α and IκB-α in a dose-dependent manner"}, {"measurement": "IκB-α degradation", "setting": "[3]", "result": "had a inhibitory effect on IκB-α degradation"}, {"measurement": "NF-κB nuclear translocation", "setting": "[3]", "result": "inhibited NF-κB nuclear translocation"}, {"measurement": "Phosphorylation of IKK-α and IκB-α", "setting": "[3]", "result": "inhibited phosphorylation of IKK-α and IκB-α in a dose-dependent manner"}, {"measurement": "ATP-induced ROS production, compound added after LPS priming", "setting": "[4]; J774A.1, LPS 6 h, then compound 1h 20 µM or DPI 25 µM 30 min, ATP 5 mM 0-40 min", "result": "slightly reduced ATP-induced ROS production at 40 min"}, {"measurement": "ATP-induced ROS production, compound added 30 min before LPS priming", "setting": "[4]; J774A.1, compound 1h 20 µM or DPI 25 µM 30 min, then LPS 6 h, then ATP 5 mM", "result": "significantly inhibited ATP-induced ROS production"}]}
